Measurements: PubChem BioAssay (NCI)
“And” between values parts separate entries of the source, which are not always exact repeats. Identical values can stand only once.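 Test compounds were applied to cells in 96-well plates for 48 hours at 5 doses. GI50: concentration for 50% inhibition of growth. TGI denotes the concentration required for complete inhibition of growth.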

Experiments:
Assay in all cases: NCI-60 cell line screen, 48 h
786-0 renal = system: 786-0 renal
DU-145 prostate = system: DU-145 prostate
NCI/ADR-RES ovarian = system: NCI/ADR-RES ovarian
SR leukemia = system: SR leukemia
IGROV1 ovarian = system: IGROV1 ovarian
ACHN renal = system: ACHN renal
LOX IMVI melanoma = system: LOX IMVI melanoma
SF-295 CNS = system: SF-295 CNS

| Compound | GI50 (786-0 renal) | TGI (786-0 renal) [µM] | GI50 (DU-145 prostate) | TGI (DU-145 prostate) | GI50 (NCI/ADR-RES ovarian) | TGI (NCI/ADR-RES ovarian) [µM] | GI50 (SR leukemia) [nM] | TGI (SR leukemia) | GI50 (IGROV1 ovarian) | TGI (IGROV1 ovarian) [µM] | GI50 (ACHN renal) | TGI (ACHN renal) | GI50 (LOX IMVI melanoma) | TGI (LOX IMVI melanoma) | GI50 (SF-295 CNS) | TGI (SF-295 CNS) |
| --- | --- | --- | --- | --- | --- | --- | --- | --- | --- | --- | --- | --- | --- | --- | --- | --- |
| Nc1ccc(C2=CC(c3ccc(Cl)cc3)N3C=CSC3=N2)cc1 (stereo unspecified) | 6.74 µM | 25.7 | 5110 nM | 16.9 µM | 7.89 µM | > 100 | 2100 | 5.51 µM | 2530 nM | 6.69 | 2.02 µM | 4.46 µM | 2340 nM | 5.65 µM | 13.1 µM | 40.4 µM |
| CCN(Cc1ccccc1)C1CCN(Cc2cc(Br)ccc2O)CC1 | 35.9 µM | > 100 | > 100000 nM | > 100 µM | 31.9 µM | > 100 | 27800 | > 100 µM | > 100000 nM | > 100 | 79.7 µM | > 100 µM | 23300 nM | 63.6 µM | 25.6 µM | > 100 µM |
| COC(=O)[C@H](Cc1cnc[nH]1)NC(=O)[C@@H](NC(=O)Nc1cc(C(F)(F)F)cc(C(F)(F)F)c1)C(C)C | 18.9 µM | 38.6 | 17800 nM | 32.7 µM | 33.7 µM | > 100 | 13200 | 32.8 µM | 18100 nM | 36.1 | 17.2 µM | 33.4 µM | – | – | 16.1 µM | 31.8 µM |
| CCCCCCCCCCCCCCCCCCn1cc[n+](C)c1 | 0.952 µM | 3.32 | 801 nM and 870 nM | 2.06 µM and 2.1 µM | 1.58 µM | 5.47 | 1240 | > 100 µM | 253 nM and 516 nM | – | 0.54 µM and 0.69 µM | 2.04 µM and 2.03 µM | 189 nM and 406 nM | 0.479 µM and 1.75 µM | – | – |
| COC12C=C/C(=C(/C(=O)OCc3ccccn3)C(=O)CCCCCCCCC3(OC)C=C/C(=C(/C(=O)OCc4ccccn4)C(=O)CCCCCCCC1)O3)O2 | 0.326 µM | 1.05 | 564 nM | 1.87 µM | – | – | 364 | > 100 µM | 421 nM | 3.73 | – | – | 188 nM | 0.417 µM | 0.397 µM | 2.15 µM |
| Cc1csc2[n+]1-c1ccccc1N(C(=O)Nc1ccccc1)C(C)C2 (stereo unspecified) | 17.7 µM | 35.8 | – | – | 25.1 µM | 88.4 | – | – | 80700 nM | > 100 | 55.5 µM | > 100 µM | 21600 nM | 48.5 µM | > 100 µM | > 100 µM |
| CC1=C(SCCC(=O)OC(C[Se]C2=C(C)C(=O)c3ccccc3C2=O)C(=O)NCCCCCC(=O)OCc2ccccc2)C(=O)c2ccccc2C1=O (stereo unspecified) | 4.68 µM | 14 | – | – | 4.59 µM | 18.3 | – | – | 2130 nM | 14.5 | 12.1 µM | 27.6 µM | 2750 nM | 11.5 µM | 2.49 µM | 8.7 µM |
| CCOC(=O)c1cc2c(cc1Cl)SC(=Nc1ccccc1)N(S(=O)(=O)c1ccc(Cl)cc1)S2(=O)=O | 13.5 µM | 27.5 | 17300 nM | 31 µM | 18.3 µM | 36.5 | – | – | 8110 nM | 22.5 | 14.5 µM | 28.8 µM | 3170 nM | 15 µM | 19.5 µM | 48.6 µM |
| C=C/C=C/[C@@H](O)CC(=C)C[C@H]1OC2[C@H](C)[C@@H](OC(=O)C[C@H]3C[C@H](OC(C)=O)C[C@@]4(C[C@@](C)(O)C[C@H](CC(=C)[C@@H](C)[C@H](OC(C)=O)[C@H](C)C(=O)C[C@@H]5C[C@H](OC)CC6(C[C@@H](O)C[C@H](/C=C\CCC[C@H]7O[C@](O)(C=C[C@H]7C)[C@H]2O)O6)O5)O4)O3)[C@@H]1O | 0.000572 µM and 0.0025 µM | > 25 | 1.2 nM and 2.5 nM | – | – | 0.164 | 2.5 | > 25 µM | 1.58 nM and < 2.5 nM | < 0.0025 | 0.00472 µM and 0.00856 µM | > 25 µM | – | – | 0.000492 µM and < 0.0025 µM | 0.0029 µM and < 0.0025 µM |
| COC(=O)c1ccc(CN2C(=O)C(Cl)=C(Nc3cccc(Cl)c3C)C2=O)cc1 | 15.6 µM | 51.5 | 29100 nM | > 100 µM | 34.8 µM | > 100 | – | – | 2760 nM | 18.5 | 33.7 µM | 90.4 µM | 32300 nM | > 100 µM | 35.4 µM | > 100 µM |
| COc1ccc2c(c1)c(-c1nc(-c3c[nH]c4ccncc34)cs1)cn2C | 1.7 µM | 3.24 | 1750 nM | 3.25 µM | 1.76 µM | 3.38 | – | – | 1910 nM | 3.54 | 1.77 µM | 3.17 µM | – | – | 1.69 µM | 3.13 µM |
| CN(C)c1ccc2oc(=O)c3ccccc3c2c1 | – | 79.6 | – | > 100 µM | – | – | – | > 100 µM | – | > 100 | – | 62.9 µM | – | > 100 µM | – | > 100 µM |
| O=C1CC(c2cccc(F)c2)Nc2cc3c(cc21)OCO3 (stereo unspecified) | < 0.01 µM | > 100 | < 10 nM | > 100 µM | – | – | – | – | – | – | < 0.01 µM | 22.6 µM | < 10 nM | > 100 µM | < 0.01 µM | > 100 µM |
| C[C@]12CC[C@H]3[C@@H](CC=C4C[C@@H](N5CCCC5)CC[C@@]43C)[C@@H]1C/C(=C\c1cccc(OCCN3CCOCC3)c1)[C@@H]2O | 1.64 µM | 3.62 | 1850 nM | > 100 µM | – | – | 3030 | > 100 µM | 12800 nM | > 100 | 4.29 µM | 32.5 µM | 2610 nM | 7.43 µM | 2.96 µM | > 100 µM |
| CC(C)(C)C1CCC2c3c([nH]c4ccccc34)C3C(=O)N(c4ccc(Cl)cc4)C(=O)C3C2C1 (stereo unspecified) | > 100 µM | > 100 | > 100000 nM | > 100 µM | 51.3 µM and > 10 µM | > 100 | – | 39.5 µM and > 10 µM | > 100000 nM | > 100 | 76.5 µM and > 10 µM | > 100 µM | – | 0.0487 µM | – | – |
| COc1cc(/C=C/C(=O)/C=C/c2ccc(-n3ccnc3C)cc2)ccc1O | 2.11 µM | 5.21 | 2820 nM | 7.55 µM | 14.5 µM | > 100 | 2550 | > 100 µM | 2040 nM | 5.12 | 3.04 µM | 10.4 µM | – | – | 24.6 µM | > 100 µM |
| O=S(=O)(O)c1cc(O)c(N=Nc2ccc(O)cc2O)c2ccccc12 | – | > 100 | – | – | – | > 100 | – | > 100 µM | – | > 100 | – | > 100 µM | – | > 100 µM | – | > 100 µM |
